Reference: patent publication US11020399B2, “Intermediates useful in the synthesis of compounds as modulators of protein kinases” (Rhizen Pharmaceuticals SA, priority 2011, dated 2021)

Tests used:
Assay type in all cases: biochemical
[1] = molecular target: PI3kα (Homo sapiens, UniProt P42336); test: Fluorescent (HTRF) determination of PI3 kinase enzyme activity, PI3Kα; conditions: 1 uM
Summary of the method: (§1)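 HTRF detection of PIP3 from PIP2 (1.38 μM in reaction mix) with 10 mM MgCl2, 5 mM DTT; compound preincubated with enzyme 10 min, then ATP (400 μM addition) 30 min at room temperature. Percent inhibition versus blank and enzyme controls at 1 μM (α, β) and 0.3 or 0.1 μM (γ, δ); IC50 also fitted.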

[2] = molecular target: PI3kβ (Homo sapiens, UniProt P42338); test: Fluorescent (HTRF) determination of PI3 kinase enzyme activity, PI3Kβ; conditions: 1 uM
PI3kβ, sequence (P42338 whole entry): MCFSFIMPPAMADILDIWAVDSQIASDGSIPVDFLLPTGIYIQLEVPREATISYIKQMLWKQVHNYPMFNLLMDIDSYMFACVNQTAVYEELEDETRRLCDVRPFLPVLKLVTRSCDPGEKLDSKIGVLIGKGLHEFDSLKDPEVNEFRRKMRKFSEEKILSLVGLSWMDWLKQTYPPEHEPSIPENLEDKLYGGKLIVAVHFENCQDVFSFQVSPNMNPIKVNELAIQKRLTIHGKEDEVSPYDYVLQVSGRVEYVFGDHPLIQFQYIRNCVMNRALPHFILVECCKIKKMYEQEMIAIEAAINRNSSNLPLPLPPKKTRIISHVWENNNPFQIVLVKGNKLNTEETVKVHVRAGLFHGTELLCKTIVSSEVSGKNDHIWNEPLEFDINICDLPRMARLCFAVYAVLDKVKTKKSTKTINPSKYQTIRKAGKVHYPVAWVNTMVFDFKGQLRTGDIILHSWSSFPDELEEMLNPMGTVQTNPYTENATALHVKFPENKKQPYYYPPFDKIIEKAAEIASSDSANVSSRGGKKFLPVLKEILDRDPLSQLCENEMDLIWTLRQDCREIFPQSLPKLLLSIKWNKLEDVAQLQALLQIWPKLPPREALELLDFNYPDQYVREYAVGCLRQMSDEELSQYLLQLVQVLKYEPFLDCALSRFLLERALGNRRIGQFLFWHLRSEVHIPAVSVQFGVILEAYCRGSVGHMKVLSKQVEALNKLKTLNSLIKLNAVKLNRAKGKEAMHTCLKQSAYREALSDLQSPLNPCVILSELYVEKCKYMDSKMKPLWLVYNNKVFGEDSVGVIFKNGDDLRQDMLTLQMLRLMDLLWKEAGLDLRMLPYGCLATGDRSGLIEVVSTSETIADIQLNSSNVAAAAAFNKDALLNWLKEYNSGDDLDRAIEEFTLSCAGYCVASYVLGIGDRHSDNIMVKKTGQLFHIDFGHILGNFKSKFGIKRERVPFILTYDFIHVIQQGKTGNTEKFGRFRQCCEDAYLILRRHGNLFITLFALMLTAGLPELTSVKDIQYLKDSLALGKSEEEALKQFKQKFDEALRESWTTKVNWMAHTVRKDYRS
PI3kβ, sequence (P27986 whole entry partner): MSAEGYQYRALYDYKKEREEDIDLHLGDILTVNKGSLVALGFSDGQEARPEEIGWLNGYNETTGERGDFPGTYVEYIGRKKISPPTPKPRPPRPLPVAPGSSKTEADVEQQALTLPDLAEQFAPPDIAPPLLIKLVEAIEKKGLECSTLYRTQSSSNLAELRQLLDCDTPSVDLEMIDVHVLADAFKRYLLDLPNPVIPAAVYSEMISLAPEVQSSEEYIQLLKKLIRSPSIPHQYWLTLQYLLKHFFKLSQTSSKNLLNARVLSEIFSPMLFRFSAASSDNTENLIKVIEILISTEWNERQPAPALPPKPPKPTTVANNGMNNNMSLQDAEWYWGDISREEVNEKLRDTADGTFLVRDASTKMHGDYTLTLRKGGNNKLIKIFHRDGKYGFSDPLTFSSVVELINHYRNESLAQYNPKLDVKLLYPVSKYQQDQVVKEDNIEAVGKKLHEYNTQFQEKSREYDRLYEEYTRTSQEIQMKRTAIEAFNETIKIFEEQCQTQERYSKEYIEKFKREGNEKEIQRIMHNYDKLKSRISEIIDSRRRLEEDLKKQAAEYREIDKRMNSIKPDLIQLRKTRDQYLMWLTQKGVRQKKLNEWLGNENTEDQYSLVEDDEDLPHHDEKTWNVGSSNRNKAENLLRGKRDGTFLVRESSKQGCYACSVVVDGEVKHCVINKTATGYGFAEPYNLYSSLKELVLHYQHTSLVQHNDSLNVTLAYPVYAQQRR
Summary of the method: as §1

[3] = molecular target: PI3kγ (Homo sapiens, UniProt P48736); test: Fluorescent (HTRF) determination of PI3 kinase enzyme activity, PI3Kγ; conditions: for inhibition at 0.3 µM: 300 nM (Examples 1-59)
PI3kγ, sequence (P48736 whole entry): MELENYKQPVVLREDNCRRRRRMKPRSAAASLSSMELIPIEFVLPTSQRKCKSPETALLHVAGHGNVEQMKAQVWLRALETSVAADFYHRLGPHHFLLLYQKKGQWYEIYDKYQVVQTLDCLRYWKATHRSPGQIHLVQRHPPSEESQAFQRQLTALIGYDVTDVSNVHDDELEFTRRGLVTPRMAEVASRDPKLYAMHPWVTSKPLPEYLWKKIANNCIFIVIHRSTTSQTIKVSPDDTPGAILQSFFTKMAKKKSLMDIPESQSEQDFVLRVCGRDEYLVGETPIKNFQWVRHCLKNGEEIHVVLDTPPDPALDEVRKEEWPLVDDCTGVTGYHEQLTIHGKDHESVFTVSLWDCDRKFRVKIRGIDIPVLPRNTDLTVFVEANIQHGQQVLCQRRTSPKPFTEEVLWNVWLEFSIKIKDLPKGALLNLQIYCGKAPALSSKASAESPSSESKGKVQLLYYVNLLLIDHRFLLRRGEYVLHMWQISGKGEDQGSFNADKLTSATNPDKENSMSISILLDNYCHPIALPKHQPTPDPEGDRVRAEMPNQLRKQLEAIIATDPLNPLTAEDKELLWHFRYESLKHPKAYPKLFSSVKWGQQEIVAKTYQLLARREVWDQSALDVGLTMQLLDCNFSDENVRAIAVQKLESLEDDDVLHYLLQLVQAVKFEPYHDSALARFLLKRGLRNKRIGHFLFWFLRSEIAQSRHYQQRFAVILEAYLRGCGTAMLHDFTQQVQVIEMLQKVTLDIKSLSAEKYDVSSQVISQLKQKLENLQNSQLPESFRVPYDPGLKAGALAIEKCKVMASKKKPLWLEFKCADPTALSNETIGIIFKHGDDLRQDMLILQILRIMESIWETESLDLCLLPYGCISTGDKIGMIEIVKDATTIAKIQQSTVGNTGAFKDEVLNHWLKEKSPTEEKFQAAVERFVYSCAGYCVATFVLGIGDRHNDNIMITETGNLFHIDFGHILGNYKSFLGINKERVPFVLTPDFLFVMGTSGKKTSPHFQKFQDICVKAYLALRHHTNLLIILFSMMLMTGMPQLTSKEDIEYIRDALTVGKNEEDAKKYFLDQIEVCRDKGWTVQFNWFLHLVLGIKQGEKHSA
Summary of the method: as §1

[4] = molecular target: PI3kδ (Homo sapiens, UniProt O00329); test: Fluorescent (HTRF) determination of PI3 kinase enzyme activity, PI3Kδ; conditions: for inhibition at 0.3 µM: 300 nM (Examples 1-59)
PI3kδ, sequence (O00329 whole entry): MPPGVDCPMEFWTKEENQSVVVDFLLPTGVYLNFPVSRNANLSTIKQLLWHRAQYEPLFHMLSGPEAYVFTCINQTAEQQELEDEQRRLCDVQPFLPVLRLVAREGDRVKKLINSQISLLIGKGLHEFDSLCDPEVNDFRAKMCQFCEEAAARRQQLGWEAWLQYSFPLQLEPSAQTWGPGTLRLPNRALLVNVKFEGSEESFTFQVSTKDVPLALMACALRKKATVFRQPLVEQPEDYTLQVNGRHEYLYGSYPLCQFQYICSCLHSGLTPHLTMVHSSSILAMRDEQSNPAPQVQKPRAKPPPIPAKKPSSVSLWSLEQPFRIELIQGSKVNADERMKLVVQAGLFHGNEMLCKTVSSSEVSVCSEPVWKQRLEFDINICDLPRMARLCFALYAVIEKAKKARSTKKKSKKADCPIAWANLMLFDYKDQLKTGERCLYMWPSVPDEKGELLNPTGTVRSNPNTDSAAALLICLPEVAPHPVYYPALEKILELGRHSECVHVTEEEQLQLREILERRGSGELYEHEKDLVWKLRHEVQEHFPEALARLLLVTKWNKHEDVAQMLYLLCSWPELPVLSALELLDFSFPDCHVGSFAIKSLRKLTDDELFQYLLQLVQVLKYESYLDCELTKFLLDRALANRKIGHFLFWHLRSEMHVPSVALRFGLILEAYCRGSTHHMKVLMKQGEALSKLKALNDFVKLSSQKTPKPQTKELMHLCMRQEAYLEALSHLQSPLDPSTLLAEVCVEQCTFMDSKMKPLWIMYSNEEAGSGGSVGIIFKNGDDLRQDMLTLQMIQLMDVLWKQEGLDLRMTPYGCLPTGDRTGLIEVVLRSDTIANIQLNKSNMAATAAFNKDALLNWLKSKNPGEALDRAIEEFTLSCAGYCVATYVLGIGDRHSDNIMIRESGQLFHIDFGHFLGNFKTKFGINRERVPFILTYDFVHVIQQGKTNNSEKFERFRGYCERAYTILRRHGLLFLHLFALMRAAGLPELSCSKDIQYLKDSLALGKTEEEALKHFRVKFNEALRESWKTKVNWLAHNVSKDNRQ
PI3kδ, sequence (P27986 whole entry partner): as the sequence (P27986 whole entry partner) above
Summary of the method: as §1

[5] = 100 nM (Examples 60-137), 0.1 µM

PI3kα, sequence (P42336 whole entry): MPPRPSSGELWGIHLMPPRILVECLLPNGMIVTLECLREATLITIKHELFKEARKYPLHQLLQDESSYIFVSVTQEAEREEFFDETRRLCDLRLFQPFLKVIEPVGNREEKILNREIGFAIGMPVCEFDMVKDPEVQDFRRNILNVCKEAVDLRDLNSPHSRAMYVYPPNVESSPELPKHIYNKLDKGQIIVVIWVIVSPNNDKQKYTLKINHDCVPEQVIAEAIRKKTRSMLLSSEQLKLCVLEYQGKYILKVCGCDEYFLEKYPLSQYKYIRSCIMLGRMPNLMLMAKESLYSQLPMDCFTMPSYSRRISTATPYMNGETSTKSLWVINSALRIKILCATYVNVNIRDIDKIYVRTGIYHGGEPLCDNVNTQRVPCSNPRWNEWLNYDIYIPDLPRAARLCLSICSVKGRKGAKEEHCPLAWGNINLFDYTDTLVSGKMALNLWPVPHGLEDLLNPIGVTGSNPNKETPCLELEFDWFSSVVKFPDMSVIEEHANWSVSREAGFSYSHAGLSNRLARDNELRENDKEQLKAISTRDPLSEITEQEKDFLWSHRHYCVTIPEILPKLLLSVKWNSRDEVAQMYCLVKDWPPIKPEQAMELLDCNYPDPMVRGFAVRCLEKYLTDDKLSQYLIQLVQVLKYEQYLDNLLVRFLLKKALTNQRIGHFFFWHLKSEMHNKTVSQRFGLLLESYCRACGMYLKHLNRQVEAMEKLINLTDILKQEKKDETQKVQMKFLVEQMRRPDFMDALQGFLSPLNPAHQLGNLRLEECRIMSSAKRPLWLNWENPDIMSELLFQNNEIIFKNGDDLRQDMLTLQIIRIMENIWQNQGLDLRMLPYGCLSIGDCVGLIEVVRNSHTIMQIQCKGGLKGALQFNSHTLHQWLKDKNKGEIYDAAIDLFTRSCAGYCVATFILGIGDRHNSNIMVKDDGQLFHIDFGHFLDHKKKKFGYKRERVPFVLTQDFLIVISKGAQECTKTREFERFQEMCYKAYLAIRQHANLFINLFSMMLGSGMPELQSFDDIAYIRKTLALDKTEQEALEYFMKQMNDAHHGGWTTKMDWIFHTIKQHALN
PI3kα, sequence (P27986 whole entry partner): as the sequence (P27986 whole entry partner) above

SMILES | inhibition at 1 µM [1] [%] | inhibition at 1 µM [2] [%] | inhibition at 0.3 µM [3] [%] | inhibition at 0.3 µM [4] [%] | further results
CC(c1oc2cccc(F)c2c(=O)c1-c1cccc(F)c1)n1nc(-c2ccc(NCCO)c(F)c2)c2c(N)ncnc21 (centres unmarked) [Example 22, 2-(1-(4-amino-3-(3-fluoro-4-(2-hydroxyethylamino)phenyl)-1H-pyrazolo[3,4-d]pyrimidin-1-yl)ethyl)-5-fluoro-3-(3-fluorophenyl)-4H-chromen-4-one] | 25 to 50 | 0 to 25 | 25 to 50 | 75 to 100 | 
CC(C)Nc1ccc(-c2nn(C(C)c3oc4cccc(F)c4c(=O)c3-c3cccc(F)c3)c3ncnc(N)c23)cc1F (centres unmarked) [Example 23, 2-(1-(4-amino-3-(3-fluoro-4-(isopropylamino)phenyl)-1H-pyrazolo[3,4-d]pyrimidin-1-yl)ethyl)-5-fluoro-3-(3-fluorophenyl)-4H-chromen-4-one] | 0 to 25 | 25 to 50 | 75 to 100 | 75 to 100 | IC50 [3]: ≤ 50 nM; IC50 [4]: 50 to 100 nM
CC(c1oc2cccc(F)c2c(=O)c1-c1cccc(F)c1)n1nc(-c2ccc(N3CCN(C)CC3)c(F)c2)c2c(N)ncnc21 (centres unmarked) [Example 27, 2-(1-(4-amino-3-(3-fluoro-4-(4-methylpiperazin-1-yl)phenyl)-1H-pyrazolo[3,4-d]pyrimidin-1-yl)ethyl)-5-fluoro-3-(3-fluorophenyl)-4H-chromen-4-one] | 0 to 25 | 25 to 50 | 50 to 75 | 25 to 50 | 
CC(c1oc2cccc(F)c2c(=O)c1-c1cccc(F)c1)n1ncc2c(N(C)C)ncnc21 (centres unmarked) [Example 28, 2-(1-(4-(dimethylamino)-1H-pyrazolo[3,4-d]pyrimidin-1-yl)ethyl)-5-fluoro-3-(3-fluorophenyl)-4H-chromen-4-one] | 0 to 25 | 25 to 50 | 50 to 75 | 50 to 75 | 
CC(c1oc2cccc(F)c2c(=O)c1-c1ccccc1)n1ncc2c(N)ncnc21 (centres unmarked) [Example 29, 2-(1-(4-amino-1H-pyrazolo[3,4-d]pyrimidin-1-yl)ethyl)-5-fluoro-3-phenyl-4H-chromen-4-one] | 0 to 25 | 25 to 50 | 50 to 75 | 25 to 50 | 
CC(c1oc2cccc(F)c2c(=O)c1-c1ccc(F)cc1)n1ncc2c(N)ncnc21 (centres unmarked) [Example 30, 2-(1-(4-amino-1H-pyrazolo[3,4-d]pyrimidin-1-yl)ethyl)-5-fluoro-3-(4-fluorophenyl)-4H-chromen-4-one] | 25 to 50 | 0 to 25 | 0 to 25 | 25 to 50 | 
CC(c1oc2cccc(F)c2c(=O)c1-c1ccc(F)cc1)n1nc(-c2ccc(OC(F)F)c(F)c2)c2c(N)ncnc21 (centres unmarked) [Example 31, 2-(1-(4-amino-3-(4-(difluoromethoxy)-3-fluorophenyl)-1H-pyrazolo[3,4-d]pyrimidin-1-yl)ethyl)-5-fluoro-3-(4-fluorophenyl)-4H-chromen-4-one] | 25 to 50 | 25 to 50 | 50 to 75 | 50 to 75 | 
CC(c1oc2cccc(F)c2c(=O)c1-c1ccccc1)n1nc(-c2ccc(OC(F)F)c(F)c2)c2c(N)ncnc21 (centres unmarked) [Example 32, 2-(1-(4-amino-3-(4-(difluoromethoxy)-3-fluorophenyl)-1H-pyrazolo[3,4-d]pyrimidin-1-yl)ethyl)-5-fluoro-3-phenyl-4H-chromen-4-one] |  |  | 50 to 75 | 0 to 25 | % inhibition (PI3kα) 1 uM [1]: D (D=0 to 25%); % inhibition (PI3kβ) 1 uM [2]: B (B=>50 to 75%)
Cc1nn(C(C)c2oc3cccc(F)c3c(=O)c2-c2cccc(F)c2)c2ncnc(N)c12 (centres unmarked) [Example 33, 2-(1-(4-amino-3-methyl-1H-pyrazolo[3,4-d]pyrimidin-1-yl)ethyl)-5-fluoro-3-(3-fluorophenyl)-4H-chromen-4-one] | 0 to 25 | 25 to 50 | 50 to 75 | 50 to 75 | 
CCc1nn(C(C)c2oc3cccc(F)c3c(=O)c2-c2cccc(F)c2)c2ncnc(N)c12 (centres unmarked) [Example 34, 2-(1-(4-amino-3-ethyl-1H-pyrazolo[3,4-d]pyrimidin-1-yl)ethyl)-5-fluoro-3-(3-fluorophenyl)-4H-chromen-4-one] | 0 to 25 | 25 to 50 | 50 to 75 | 50 to 75 | 
CC(c1oc2cccc(F)c2c(=O)c1-c1cccc(F)c1)n1nc(-c2cc3ccccc3s2)c2c(N)ncnc21 (centres unmarked) [Example 36, 2-(1-(4-amino-3-(benzo[b]thiophen-2-yl)-1H-pyrazolo[3,4-d]pyrimidin-1-yl)ethyl)-5-fluoro-3-(3-fluorophenyl)-4H-chromen-4-one] | 0 to 25 | 50 to 75 | 75 to 100 | 25 to 50 | 
CC(c1oc2cccc(F)c2c(=O)c1-c1cccc(F)c1)n1nc(N2CCOCC2)c2c(N)ncnc21 (centres unmarked) [Example 37, 2-(1-(4-amino-3-morpholino-1H-pyrazolo[3,4-d]pyrimidin-1-yl)ethyl)-5-fluoro-3-(3-fluorophenyl)-4H-chromen-4-one] | 0 to 25 | 25 to 50 | 50 to 75 | 0 to 25 | 
CC(c1oc2cccc(F)c2c(=O)c1-c1cccc(F)c1)n1nc(N(C)C)c2c(N)ncnc21 (centres unmarked) [Example 38, 2-(1-(4-amino-3-(dimethylamino)-1H-pyrazolo[3,4-d]pyrimidin-1-yl)ethyl)-5-fluoro-3-(3-fluorophenyl)-4H-chromen-4-one] | 25 to 50 | 25 to 50 | 0 to 25 | 50 to 75 | 
CC(c1oc2cccc(F)c2c(=O)c1-c1cccc(F)c1)n1nc(N2CCCCC2)c2c(N)ncnc21 (centres unmarked) [Example 39, 2-(1-(4-amino-3-(piperidin-1-yl)-1H-pyrazolo[3,4-d]pyrimidin-1-yl)ethyl)-5-fluoro-3-(3-fluorophenyl)-4H-chromen-4-one] | 25 to 50 | 50 to 75 | 0 to 25 | 25 to 50 | 
CC(C)Oc1ccc(-c2nn(C(C)c3oc4cccc(F)c4c(=O)c3-c3cccc(F)c3)c3ncnc(N)c23)cn1 (centres unmarked) [Example 40, 2-(1-(4-amino-3-(6-isopropoxypyridin-3-yl)-1H-pyrazolo[3,4-d]pyrimidin-1-yl)ethyl)-5-fluoro-3-(3-fluorophenyl)-4H-chromen-4-one] | 25 to 50 | 50 to 75 | 0 to 25 | 50 to 75 | 
CSc1nn(C(C)c2oc3cccc(F)c3c(=O)c2-c2cccc(F)c2)c2ncnc(N)c12 (centres unmarked) [Example 41, 2-(1-(4-amino-3-(methylthio)-1H-pyrazolo[3,4-d]pyrimidin-1-yl)ethyl)-5-fluoro-3-(3-fluorophenyl)-4H-chromen-4-one] | 25 to 50 | 25 to 50 | 50 to 75 | 50 to 75 | 
CC(c1oc2cccc(F)c2c(=O)c1-c1cccc(F)c1)n1nc(-c2ccc(OC3CN(C(c4ccccc4)c4ccccc4)C3)c(F)c2)c2c(N)ncnc21 (centres unmarked) [Example 44, 2-(1-(4-amino-3-(4-(1-benzhydrylazetidin-3-yloxy)-3-fluorophenyl)-1H-pyrazolo[3,4-d]pyrimidin-1-yl)ethyl)-5-fluoro-3-(3-fluorophenyl)-4H-chromen-4-one] | 0 to 25 | 0 to 25 | 25 to 50 | 25 to 50 | 
Cc1cc(-c2nn(C(C)c3oc4cccc(F)c4c(=O)c3-c3cccc(F)c3)c3ncnc(N)c23)ccc1OC(C)C (centres unmarked) [Example 50, 2-(1-(4-amino-3-(4-isopropoxy-3-methylphenyl)-1H-pyrazolo[3,4-d]pyrimidin-1-yl)ethyl)-5-fluoro-3-(3-fluorophenyl)-4H-chromen-4-one] |  |  | 50 to 75 | 75 to 100 | % inhibition (PI3kα) 1 uM [1]: D (D=0 to 25%); % inhibition (PI3kβ) 1 uM [2]: C (C=>25 to 50%)
CCC(Nc1ncnc2[nH]cnc12)c1oc2cccc(F)c2c(=O)c1-c1ccccc1 (centres unmarked) [Example 65, 2-(1-(9H-purin-6-ylamino)propyl)-5-fluoro-3-phenyl-4H-chromen-4-one] | 25 to 50 | 25 to 50 |  |  | inhibition at 0.1 µM ([3]; 100 nM (Examples 60-137)): 50 to 75%; inhibition at 0.1 µM ([4]; 100 nM (Examples 60-137)): 0 to 25%
CC(c1oc2cccc(F)c2c(=O)c1-c1ccc(F)cc1)n1cnc2c(N)nc(F)nc21 (centres unmarked) [Example 107, 2-(1-(6-amino-2-fluoro-9H-purin-9-yl)ethyl)-5-fluoro-3-(4-fluorophenyl)-4H-chromen-4-one] | 0 to 25 | 25 to 50 |  |  | inhibition at 0.1 µM ([3]; 100 nM (Examples 60-137)): 25 to 50%; inhibition at 0.1 µM ([4]; 100 nM (Examples 60-137)): 0 to 25%
CC(c1oc2cccc(F)c2c(=O)c1-c1ccc(F)cc1)n1cnc2c(N3CCOCC3)ncnc21 (centres unmarked) [Example 108, 5-fluoro-3-(4-fluorophenyl)-2-(1-(6-morpholino-9H-purin-9-yl)ethyl)-4H-chromen-4-one] | 25 to 50 | 0 to 25 |  |  | inhibition at 0.1 µM ([3]; 100 nM (Examples 60-137)): 25 to 50%; inhibition at 0.1 µM ([4]; 100 nM (Examples 60-137)): 25 to 50%
CC(c1oc2cccc(F)c2c(=O)c1-c1cccc(F)c1)n1cnc2c(N(C)C)ncnc21 (centres unmarked) [Example 110, 2-(1-(6-(dimethylamino)-9H-purin-9-yl)ethyl)-5-fluoro-3-(3-fluorophenyl)-4H-chromen-4-one] | 0 to 25 | 25 to 50 |  |  | IC50 [3]: 50 to 100 nM; % inhibition (PI3kγ) 100 nM [3, 5]: B (B=>50 to 75%); IC50 [4]: ≤ 50 nM; % inhibition (PI3kδ) 100 nM [4, 5]: A (A=>75 to 100%)
